From patent publication US20240067657A1, “AMIDO-SUBSTITUTED PYRIDYL COMPOUNDS AND METHODS OF USE THEREOF FOR THE TREATMENT OF HERPESVIRUSES” (Merck Sharp & Dohme LLC, priority 2020, published 2024)
Read-outs that look alike come from different tables or passages of the source.

How the values were obtained:
[1] = tested on: VZV in MeWo or MRC5 cells; assay: Viral qPCR assay VZV (V0/V1, V2/V3), EC50; format: cell-based
Procedure, shortened: (§1)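 Infected cells added to compounds (10-point 3-fold series), ~72 h at 37 °C, then lysed; viral genomes by TaqMan qPCR against plasmid standard, normalized to PPIA in V0/V1 only, EC50 from 4-parameter fit. HCMV AD169, 0.05-0.1 pfu/cell, ± 50% FBS; VZV 0.04-0.1 pfu/cell; HSV-1 F 0.0005-0.004 pfu/cell.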

[2] = biological target: T1, varicella zoster virus DNA polymerase (Varicella-zoster virus, UniProt P09252); assay: VZV polymerase assay (AlphaLISA, IC50); format: biochemical; settings: polymerase assay of Example 190
T1 construct: made in house; host or cells: SF21 insect cells (baculovirus vector)
Procedure, shortened: (§2)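 Baculovirus-expressed polymerase (HCMV 0.2 nM, VZV 0.4 nM final) preincubated 30 min at room temperature with compound in pH 7.5 HEPES buffer; reaction started with 1.6 nM DIG-primer/template and nM dNTPs including biotin-dUTP, run 60 min at 37° C. Incorporation detected by AlphaLISA; IC50 from 4-parameter fit.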

[3] = tested on: HCMV Strain AD169 in MRC-5 cells; assay: Viral qPCR assay HCMV (V0/V1, V2/V3), EC50; format: cell-based
Procedure, shortened: as §1

[4] = biological target: T2, Human cytomegalovirus DNA polymerase (Human cytomegalovirus, UniProt P08546); assay: HCMV polymerase assay (AlphaLISA, IC50); format: biochemical; settings: polymerase assay of Example 190
T2 construct: made in house; host or cells: SF21 insect cells (baculovirus vector)
Procedure, shortened: as §2

[5] = tested on: HSV-1 Strain F in Vero or MRC5 cells; assay: Viral qPCR assay HSV-1 (V0/V1, V2/V3), EC50; format: cell-based
Procedure, shortened: as §1

[6] = Human alphaherpesvirus 3, MeWo, MEWO cells, 10%, read-out: VZV Cell (EC50) MEWO 10%
[7] = Human betaherpesvirus 5, AD169, MRC5, viral qPCR assay of Example 191, read-out: HCMV Cell (EC50)
[8] = Human alphaherpesvirus 1, Vero, VERO cells, 10%, read-out: HSV1 Cell (EC50) VERO 10%
[9] = Human alphaherpesvirus 3, MRC5, MRC5 cells, 10%, read-out: VZV Cell (EC50) MRC5 10%
[10] = Human alphaherpesvirus 1, MRC5, MRC5 cells, 10%, read-out: HSV1 Cell (EC50) MRC5 10%

T1 sequence (P09252 whole entry): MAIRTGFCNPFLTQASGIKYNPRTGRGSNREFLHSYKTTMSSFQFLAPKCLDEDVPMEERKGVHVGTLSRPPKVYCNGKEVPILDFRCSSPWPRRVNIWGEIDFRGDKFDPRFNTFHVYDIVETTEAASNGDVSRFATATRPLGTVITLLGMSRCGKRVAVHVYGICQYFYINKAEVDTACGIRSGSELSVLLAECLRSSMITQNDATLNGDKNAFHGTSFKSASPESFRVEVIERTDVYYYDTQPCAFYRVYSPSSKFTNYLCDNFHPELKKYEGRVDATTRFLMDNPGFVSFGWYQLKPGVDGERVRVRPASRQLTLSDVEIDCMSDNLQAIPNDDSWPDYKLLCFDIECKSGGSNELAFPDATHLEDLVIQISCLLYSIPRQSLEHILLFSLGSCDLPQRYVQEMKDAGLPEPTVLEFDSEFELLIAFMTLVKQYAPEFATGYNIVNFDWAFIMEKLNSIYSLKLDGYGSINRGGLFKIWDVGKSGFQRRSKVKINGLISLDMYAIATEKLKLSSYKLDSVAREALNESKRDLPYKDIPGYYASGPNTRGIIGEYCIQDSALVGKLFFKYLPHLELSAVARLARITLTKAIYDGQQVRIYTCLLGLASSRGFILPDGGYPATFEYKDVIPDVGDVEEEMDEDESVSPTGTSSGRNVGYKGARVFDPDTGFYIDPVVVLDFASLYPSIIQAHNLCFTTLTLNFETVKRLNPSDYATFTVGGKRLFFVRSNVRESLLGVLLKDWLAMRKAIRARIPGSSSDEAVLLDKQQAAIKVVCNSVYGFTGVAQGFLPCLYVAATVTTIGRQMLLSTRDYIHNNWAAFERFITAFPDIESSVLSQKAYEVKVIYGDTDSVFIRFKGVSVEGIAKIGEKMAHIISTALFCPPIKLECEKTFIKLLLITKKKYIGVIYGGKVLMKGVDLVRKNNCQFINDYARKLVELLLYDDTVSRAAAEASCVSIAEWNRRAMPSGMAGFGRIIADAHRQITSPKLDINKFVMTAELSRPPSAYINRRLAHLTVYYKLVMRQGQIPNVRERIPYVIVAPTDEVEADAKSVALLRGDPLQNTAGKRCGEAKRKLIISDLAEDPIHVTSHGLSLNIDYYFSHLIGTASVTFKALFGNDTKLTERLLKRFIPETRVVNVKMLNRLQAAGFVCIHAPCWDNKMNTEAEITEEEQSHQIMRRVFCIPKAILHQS
T2 sequence (P08546 whole entry): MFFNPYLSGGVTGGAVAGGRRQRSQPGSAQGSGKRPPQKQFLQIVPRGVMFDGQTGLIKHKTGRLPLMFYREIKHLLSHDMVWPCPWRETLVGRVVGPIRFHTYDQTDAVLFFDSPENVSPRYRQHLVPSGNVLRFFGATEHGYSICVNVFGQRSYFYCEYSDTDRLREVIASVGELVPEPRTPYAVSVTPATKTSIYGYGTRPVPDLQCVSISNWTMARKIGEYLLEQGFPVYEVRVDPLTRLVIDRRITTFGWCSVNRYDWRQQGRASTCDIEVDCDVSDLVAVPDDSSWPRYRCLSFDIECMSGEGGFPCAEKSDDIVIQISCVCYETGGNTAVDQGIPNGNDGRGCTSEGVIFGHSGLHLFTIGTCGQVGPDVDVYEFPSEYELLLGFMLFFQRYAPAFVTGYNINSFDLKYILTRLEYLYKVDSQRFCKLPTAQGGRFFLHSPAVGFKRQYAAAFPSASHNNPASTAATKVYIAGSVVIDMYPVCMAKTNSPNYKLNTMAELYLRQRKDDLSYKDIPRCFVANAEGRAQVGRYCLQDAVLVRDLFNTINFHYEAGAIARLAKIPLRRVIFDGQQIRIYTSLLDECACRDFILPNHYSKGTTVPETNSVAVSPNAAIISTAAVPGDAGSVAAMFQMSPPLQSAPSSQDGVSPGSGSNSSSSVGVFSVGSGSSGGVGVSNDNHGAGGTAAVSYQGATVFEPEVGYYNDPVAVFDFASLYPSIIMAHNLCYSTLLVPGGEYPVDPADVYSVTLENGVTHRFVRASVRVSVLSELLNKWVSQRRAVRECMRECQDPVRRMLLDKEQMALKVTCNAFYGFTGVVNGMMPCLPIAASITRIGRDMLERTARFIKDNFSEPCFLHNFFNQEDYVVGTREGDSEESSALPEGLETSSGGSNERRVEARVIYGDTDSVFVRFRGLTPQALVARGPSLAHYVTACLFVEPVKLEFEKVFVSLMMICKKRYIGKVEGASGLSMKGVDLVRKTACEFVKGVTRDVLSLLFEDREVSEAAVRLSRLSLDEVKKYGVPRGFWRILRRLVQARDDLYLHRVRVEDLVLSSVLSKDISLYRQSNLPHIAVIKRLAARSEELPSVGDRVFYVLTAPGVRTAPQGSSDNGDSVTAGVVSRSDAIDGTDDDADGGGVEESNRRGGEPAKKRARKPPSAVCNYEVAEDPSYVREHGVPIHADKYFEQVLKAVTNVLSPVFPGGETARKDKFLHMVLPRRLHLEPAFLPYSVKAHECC

| Structure (SMILES) | EC50 [1, 6] | IC50 [2] | EC50 [3, 7] | IC50 [4] | EC50 [5, 8] | EC50 [1, 9] | EC50 [5, 10] | EC50 ([1]; Human alphaherpesvirus 3, MeWo, read-out: VZV Cell (EC50) MEWO 10%) | EC50 ([3]; Human betaherpesvirus 5, AD169, MRC5, read-out: HCMV Cell (EC50)) | EC50 ([5]; Human alphaherpesvirus 1, Vero, read-out: HSV1 Cell (EC50) VERO 10%) |
| --- | --- | --- | --- | --- | --- | --- | --- | --- | --- | --- |
| Cn1cc(-c2cnc(C(=O)NCc3ccc(Cl)cc3F)cc2O[C@H]2CCN3C(=O)OC[C@@H]3C2)cn1 [Compound 97] | 95.5 nM | 15.7 nM | 101 nM | 14 nM | 191 nM |  |  |  |  |  |
| Cc1cnn(-c2cnc(C(=O)NCc3ccc(Cl)cc3)cc2O[C@H]2CCN3C(=O)OC[C@@H]3C2)c1 [Compound 105] | 870 nM | 139 nM | 1300 nM | 223 nM | 655 nM |  |  |  |  |  |
| Cc1ccn(-c2cnc(C(=O)NCc3ccc(Cl)cc3)cc2O[C@H]2CCN3C(=O)OC[C@@H]3C2)n1 [Compound 106] | 288 nM | 197 nM | 923 nM | 224 nM | 575 nM |  |  |  |  |  |
| COC(C)(C)Cc1cnc(C(=O)NCc2ccc(Cl)cc2)cc1O[C@H]1CCN2C(=O)OC[C@@H]2C1 [Compound 107] |  | 3.07 nM | 549 nM | 24 nM |  | 582 nM | 473 nM |  |  |  |
| O=C(NCc1ccc(Cl)cc1)c1cc(O[C@H]2CCN3C(=O)OC[C@@H]3C2)c(C2CC(F)(F)C2)cn1 [Compound 108] |  | 26.4 nM | 844 nM | 45.1 nM |  | 1620 nM | 646 nM |  |  |  |
| COC1CC(c2cnc(C(=O)NCc3ccc(Cl)cc3)cc2O[C@H]2CCN3C(=O)OC[C@@H]3C2)C1 (stereo partly drawn) [Compound 110] |  | 4.84 nM | 354 nM | 22 nM |  | 1520 nM | 998 nM |  |  |  |
| CC(C)(O)Cc1cnc(C(=O)NCc2ccc(Cl)cc2)cc1O[C@H]1CCN2C(=O)OC[C@@H]2C1 [Compound 111] |  | 13.8 nM | 396 nM | 13.6 nM | 719 nM | 1160 nM | 1120 nM |  |  |  |
| O=C(NCc1ccc(Cl)cc1)c1cc(O[C@H]2CCN3C(=O)OC[C@@H]3C2)c(CCO)cn1 [Compound 112] | 482 nM | 31.1 nM | 635 nM | 54.4 nM | 3260 nM |  |  |  |  |  |
| O=C(NCc1ccc(Cl)cc1)c1cc(O[C@H]2CCN3C(=O)OC[C@@H]3C2)c(CCn2cccn2)cn1 [Compound 115] | 900 nM | 132 nM | 1720 nM | 173 nM | 1280 nM |  |  |  |  |  |
| COC1CN(c2cnc(C(=O)NCc3ccc(Cl)cc3)cc2O[C@H]2CCN3C(=O)OC[C@@H]3C2)C1 [Compound 120] |  | 2.6 nM | 210 nM | 16.2 nM |  | 441 nM | 434 nM |  |  |  |
| O=C(NCc1ccc(Cl)cc1)c1cc(O[C@H]2CCN3C(=O)OC[C@@H]3C2)c(N2CC(O)C2)cn1 [Compound 122] |  | 9.04 nM | 121 nM | 19.2 nM |  | 582 nM | 520 nM |  |  |  |
| O=C(NCc1ccc(Cl)cc1)c1cc(O[C@H]2CCN3C(=O)OC[C@@H]3C2)c(N2CC(F)C2)cn1 [Compound 125] |  | 20 nM | 198 nM | 37.7 nM |  | 720 nM | 531 nM |  |  |  |
| O=C(NCc1ccc(Cl)cc1)c1cc(O[C@H]2CCN3C(=O)OC[C@@H]3C2)c(OCC(F)(F)F)cn1 [Compound 126] | 488 nM | 16.6 nM | 572 nM | 25.8 nM | 154 nM | 1460 nM | 1960 nM |  |  |  |
| N#Cc1cnc(C(=O)NCc2ccc(Cl)cc2)cc1O[C@H]1CCN2C(=O)OC[C@@H]2C1 [Compound 127] | 239 nM | 28.3 nM | 349 nM | 30 nM | 234 nM | 1110 nM | 800 nM |  |  |  |
| COc1cnc(C(=O)NCc2ccc(Cl)cc2)cc1O[C@H]1CCN2C(=O)OC[C@@H]2C1 [Compound 129] |  | 18 nM |  | 54 nM |  |  |  | 278 nM | 546 nM | 339 nM |
| Cc1c[n+]([O-])c(C(=O)NCc2ccc(Cl)cc2)cc1O[C@H]1CCN2C(=O)OC[C@@H]2C1 [Compound 130] | 252 nM | 43.4 nM | 557 nM | 89.1 nM | 496 nM |  |  |  |  |  |
| CC(C)n1cc(-c2c[n+]([O-])c(C(=O)NCc3ccc(Cl)cc3)cc2O[C@H]2CCN3C(=O)OC[C@@H]3C2)cn1 [Compound 131] | 158 nM | 11 nM | 98.5 nM | 11.8 nM | 268 nM |  |  |  |  |  |
| CC(=O)N1CCC(Oc2cc(C(=O)NCc3ccc(Cl)cc3)[n+]([O-])cc2-c2cnn(C(F)F)c2)CC1 [Compound 132] | 510 nM | 40.3 nM | 1320 nM | 161 nM | 401 nM |  |  |  |  |  |
| O=C(NCc1ccc(Cl)cc1)c1cc(O[C@H]2CCN3C(=O)OC[C@@H]3C2)c(CN2CCC(O)CC2)cn1 [Compound 135] | 344 nM | 41.1 nM | 634 nM | 90 nM | 9210 nM |  |  |  |  |  |
| CN(CCCO)Cc1cnc(C(=O)NCc2ccc(Cl)cc2)cc1O[C@H]1CCN2C(=O)OC[C@@H]2C1 [Compound 136] | 386 nM | 152 nM | 989 nM | 214 nM | 9260 nM |  |  |  |  |  |
| O=C(NCc1ccc(Cl)cc1)c1cc(O[C@H]2CCN3C(=O)OC[C@@H]3C2)c(CN2CCCOCC2)cn1 [Compound 138] | 198 nM | 13.7 nM | 296 nM | 65.8 nM | 420 nM |  |  |  |  |  |
| O=C(NCc1ccc(Cl)cc1)c1cc(O[C@H]2CCN3C(=O)OC[C@@H]3C2)c(CN2CCSCC2)cn1 [Compound 139] |  | 13.3 nM | 417 nM | 33 nM | 545 nM | 1180 nM |  |  |  |  |
| O=C(NCc1ccc(Cl)cc1)c1cc(O[C@H]2CCN3C(=O)OC[C@@H]3C2)c(CNC2CC2)cn1 [Compound 141] |  | 44.8 nM | 554 nM | 77.5 nM | 287 nM | 2210 nM |  |  |  |  |
| CN(Cc1cnc(C(=O)NCc2ccc(Cl)cc2)cc1O[C@H]1CCN2C(=O)OC[C@@H]2C1)[C@H]1CCOC1 [Compound 143] |  | 13.4 nM | 253 nM | 14.8 nM | 471 nM | 1270 nM |  |  |  |  |
| CSc1cnc(C(=O)NCc2ccc(Cl)cc2)cc1O[C@H]1CCN2C(=O)OC[C@@H]2C1 [Compound 147a] |  | 23.4 nM | 245 nM | 19 nM |  | 622 nM | 414 nM |  |  |  |
| O=C(NCc1ccc(Cl)cc1)c1cc(O[C@H]2CCN3C(=O)OC[C@@H]3C2)c(-c2cnc(C(F)F)o2)cn1 [Compound 148] |  | 4.47 nM | 163 nM | 2.53 nM |  | 229 nM | 129 nM |  |  |  |
| CCc1noc(-c2cnc(C(=O)NCc3ccc(Cl)cc3)cc2O[C@H]2CCN3C(=O)OC[C@@H]3C2)n1 [Compound 149] |  | 6.31 nM | 124 nM | 16.4 nM |  | 269 nM | 125 nM |  |  |  |
| Cc1cc(-c2cnc(C(=O)NCc3ccc(Cl)cc3)cc2O[C@H]2CCN3C(=O)OC[C@@H]3C2)on1 [Compound 150] |  | ≤ 0.444 nM | 110 nM | 7.76 nM |  | 144 nM | 78.2 nM |  |  |  |
| CS(=O)(=O)N1CCC(Oc2cc(C(=O)NCc3ccc(Cl)cc3)ncc2Cl)CC1 [Compound 151] | 1410 nM | 232 nM | 5340 nM | 238 nM | 1030 nM |  |  |  |  |  |
